Test results as given in patent US8952024B2, “Herbicidal pyrimidone derivatives” (E I du Pont de Nemours and Company, priority 2009, dated 2015).

Columns and labels:
Test in all cases: Test B pre-/postemergence plant response
Type in all cases: in vivo
Details in all cases: Postemergence
[1] = system: Italian ryegrass (Lolium multiflorum)
Procedure, shortened: (§1)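 Steps: sow seed in loam–sand soil and spray preemergence, or grow plants in peat-based medium to 1–4 leaves (2–18 cm) and spray postemergence; formulation is non-phytotoxic solvent plus surfactant; hold in greenhouse 13–15 days; score visually vs controls, 0 = no effect, 100 = complete control.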

[2] = system: blackgrass (Alopecurus myosuroides)
Procedure, shortened: as §1

[3] = system: cocklebur (Xanthium strumarium)
Procedure, shortened: as §1

corn (Zea mays) = system: corn (Zea mays)
Procedure, shortened: as §1

[4] = system: giant foxtail (Setaria faberii)
Procedure, shortened: as §1

[5] = system: goosegrass (Eleusine indica)
Procedure, shortened: as §1

[6] = system: green foxtail (Setaria viridis)
Procedure, shortened: as §1

[7] = system: johnsongrass (Sorghum halepense)
Procedure, shortened: as §1

kochia (Kochia scoparia) = system: kochia (Kochia scoparia)
Procedure, shortened: as §1

[8] = system: large crabgrass (Digitaria sanguinalis)
Procedure, shortened: as §1

[9] = system: morningglory (Ipomoea coccinea)
Procedure, shortened: as §1

[10] = system: ragweed (common ragweed, Ambrosia elatior)
Procedure, shortened: as §1

soybean (Glycine max) = system: soybean (Glycine max)
Procedure, shortened: as §1

[11] = system: velvetleaf (Abutilon theophrasti)
Procedure, shortened: as §1

**Q.** For `COc1ccc(-n2c(-c3ccccc3)ncc(C(=O)C3=C(O)CCCC3=O)c2=O)cc1` [Compound 4, 5-[(2-hydroxy-6-oxo-cyclohexen-1-yl)carbonyl]-3-(4-methoxyphenyl)-2-phenyl-4(3H)-pyrimidinone], which pest or weed control at 31 g/ha ([1]; Lolium multiflorum, post-emergence, 31 g ai/ha, scale 0 to 100 (0 no effect, 100 complete control), read-out: Plant response rating, Ryegrass, Italian) is on record?
**A.** 10%

**Q.** And the pest or weed control at 62 g/ha ([1]; Lolium multiflorum, post-emergence, 62 g ai/ha, scale 0 (no effect) to 100 (complete control), 13 to 15 days, read-out: Plant response rating, Ryegrass, Italian)?
**A.** 10%

**Q.** What about the pest or weed control at 125 g/ha ([1]; Lolium multiflorum, post-emergence, 125 g ai/ha, visual rating after 13 to 15 days, scale 0 (no effect) to 100 (complete control)) of the same compound?
**A.** 15%

**Q.** What about the “Ryegrass, Italian plant response rating” value ([1]; 250 g ai/ha, scale 0 to 100) of the same compound?
**A.** 20

**Q.** What about the pest or weed control at 31 g/ha ([2]; Alopecurus myosuroides, post-emergence, 360 h, 31 g ai/ha, scale 0 to 100 (0 no effect, 100 complete control), read-out: Plant response rating, Blackgrass) of the same compound?
**A.** 10%

**Q.** What about the pest or weed control at 62 g/ha ([2]; Alopecurus myosuroides, post-emergence, 360 h, 62 g ai/ha, scale 0 (no effect) to 100 (complete control), 13 to 15 days, read-out: Plant response rating, Blackgrass) of the same compound?
**A.** 20%

**Q.** And the pest or weed control at 125 g/ha ([2]; Alopecurus myosuroides, post-emergence, 360 h, 125 g ai/ha, visual rating after 13 to 15 days, scale 0 (no effect) to 100 (complete control))?
**A.** 30%

**Q.** What about the “Blackgrass plant response rating” value ([2]; 250 g ai/ha, scale 0 to 100) of the same compound?
**A.** 50

**Q.** What about the “Cocklebur plant response rating” value ([3]; 250 g ai/ha, scale 0 to 100) of the same compound?
**A.** 100

**Q.** What about the pest or weed control at 31 g/ha ([3]; Xanthium strumarium, post-emergence, 31 g ai/ha, scale 0 to 100 (0 no effect, 100 complete control), read-out: Plant response rating, Cocklebur) of the same compound?
**A.** 100%

**Q.** What about the pest or weed control at 62 g/ha ([3]; Xanthium strumarium, post-emergence, 62 g ai/ha, scale 0 (no effect) to 100 (complete control), 13 to 15 days, read-out: Plant response rating, Cocklebur) of the same compound?
**A.** 100%

**Q.** What about the pest or weed control at 125 g/ha ([3]; Xanthium strumarium, post-emergence, 125 g ai/ha, visual rating after 13 to 15 days, scale 0 (no effect) to 100 (complete control)) of the same compound?
**A.** 100%

**Q.** And the “Corn plant response rating” value (corn (Zea mays); 250 g ai/ha, scale 0 to 100)?
**A.** 85

**Q.** And the Corn plant response rating (crop injury, 0 = no effect, 100 = complete kill) at 31 g/ha (corn (Zea mays); Zea mays, post-emergence, 31 g ai/ha, scale 0 to 100 (0 no effect, 100 complete control))?
**A.** 10%

**Q.** What about the Corn plant response rating (crop injury, 0 = no effect, 100 = complete kill) at 62 g/ha (corn (Zea mays); Zea mays, post-emergence, 62 g ai/ha, scale 0 (no effect) to 100 (complete control), 13 to 15 days) of the same compound?
**A.** 25%

**Q.** And the Corn plant response rating (crop injury, 0 = no effect, 100 = complete kill) at 125 g/ha (corn (Zea mays); Zea mays, post-emergence, 125 g ai/ha, visual rating after 13 to 15 days, scale 0 (no effect) to 100 (complete control))?
**A.** 50%

**Q.** And the “Foxtail, Giant plant response rating” value ([4]; 250 g ai/ha, scale 0 to 100)?
**A.** 100

**Q.** What about the pest or weed control at 31 g/ha ([4]; Setaria faberi, post-emergence, 31 g ai/ha, scale 0 to 100 (0 no effect, 100 complete control), read-out: Plant response rating, Foxtail, Giant) of the same compound?
**A.** 80%

**Q.** What about the pest or weed control at 62 g/ha ([4]; Setaria faberi, post-emergence, 62 g ai/ha, scale 0 (no effect) to 100 (complete control), 13 to 15 days, read-out: Plant response rating, Foxtail, Giant) of the same compound?
**A.** 98%

**Q.** What about the pest or weed control at 125 g/ha ([4]; Setaria faberi, post-emergence, 125 g ai/ha, visual rating after 13 to 15 days, scale 0 (no effect) to 100 (complete control)) of the same compound?
**A.** 98%

**Q.** What about the pest or weed control at 31 g/ha ([5]; Eleusine indica, post-emergence, 31 g ai/ha, scale 0 to 100 (0 no effect, 100 complete control), read-out: Plant response rating, Goosegrass) of the same compound?
**A.** 25%

**Q.** And the pest or weed control at 62 g/ha ([5]; Eleusine indica, post-emergence, 62 g ai/ha, scale 0 (no effect) to 100 (complete control), 13 to 15 days, read-out: Plant response rating, Goosegrass)?
**A.** 75%

**Q.** What about the pest or weed control at 125 g/ha ([5]; Eleusine indica, post-emergence, 125 g ai/ha, visual rating after 13 to 15 days, scale 0 (no effect) to 100 (complete control)) of the same compound?
**A.** 85%

**Q.** What about the “Goosegrass plant response rating” value ([5]; 250 g ai/ha, scale 0 to 100) of the same compound?
**A.** 98

**Q.** What about the “Foxtail, Green plant response rating” value ([6]; 250 g ai/ha, scale 0 to 100) of the same compound?
**A.** 60

**Q.** What about the pest or weed control at 31 g/ha ([6]; Setaria viridis, post-emergence, 31 g ai/ha, scale 0 to 100 (0 no effect, 100 complete control), read-out: Plant response rating, Foxtail, Green) of the same compound?
**A.** 40%

**Q.** And the pest or weed control at 62 g/ha ([6]; Setaria viridis, post-emergence, 62 g ai/ha, scale 0 (no effect) to 100 (complete control), 13 to 15 days, read-out: Plant response rating, Foxtail, Green)?
**A.** 40%

**Q.** What about the pest or weed control at 125 g/ha ([6]; Setaria viridis, post-emergence, 125 g ai/ha, visual rating after 13 to 15 days, scale 0 (no effect) to 100 (complete control)) of the same compound?
**A.** 60%

**Q.** And the “Johnsongrass plant response rating” value ([7]; 250 g ai/ha, scale 0 to 100)?
**A.** 98

**Q.** What about the pest or weed control at 31 g/ha ([7]; Sorghum halepense, post-emergence, 31 g ai/ha, scale 0 to 100 (0 no effect, 100 complete control), read-out: Plant response rating, Johnsongrass) of the same compound?
**A.** 45%

**Q.** What about the pest or weed control at 62 g/ha ([7]; Sorghum halepense, post-emergence, 62 g ai/ha, scale 0 (no effect) to 100 (complete control), 13 to 15 days, read-out: Plant response rating, Johnsongrass) of the same compound?
**A.** 80%

**Q.** And the pest or weed control at 125 g/ha ([7]; Sorghum halepense, post-emergence, 125 g ai/ha, visual rating after 13 to 15 days, scale 0 (no effect) to 100 (complete control))?
**A.** 95%

**Q.** What about the pest or weed control at 31 g/ha (kochia (Kochia scoparia); Bassia scoparia, post-emergence, 31 g ai/ha, scale 0 to 100 (0 no effect, 100 complete control), read-out: Plant response rating, Kochia) of the same compound?
**A.** 80%

**Q.** And the pest or weed control at 62 g/ha (kochia (Kochia scoparia); Bassia scoparia, post-emergence, 62 g ai/ha, scale 0 (no effect) to 100 (complete control), 13 to 15 days, read-out: Plant response rating, Kochia)?
**A.** 100%

**Q.** And the pest or weed control at 125 g/ha (kochia (Kochia scoparia); Bassia scoparia, post-emergence, 125 g ai/ha, visual rating after 13 to 15 days, scale 0 (no effect) to 100 (complete control))?
**A.** 100%

**Q.** And the “Kochia plant response rating” value (kochia (Kochia scoparia); 250 g ai/ha, scale 0 to 100)?
**A.** 100

**Q.** And the pest or weed control at 31 g/ha ([8]; Digitaria sanguinalis, post-emergence, 31 g ai/ha, scale 0 to 100 (0 no effect, 100 complete control), read-out: Plant response rating, Crabgrass, Large)?
**A.** 70%

**Q.** What about the pest or weed control at 62 g/ha ([8]; Digitaria sanguinalis, post-emergence, 62 g ai/ha, scale 0 (no effect) to 100 (complete control), 13 to 15 days, read-out: Plant response rating, Crabgrass, Large) of the same compound?
**A.** 85%

**Q.** And the pest or weed control at 125 g/ha ([8]; Digitaria sanguinalis, post-emergence, 125 g ai/ha, visual rating after 13 to 15 days, scale 0 (no effect) to 100 (complete control))?
**A.** 100%

**Q.** What about the “Crabgrass, Large plant response rating” value ([8]; 250 g ai/ha, scale 0 to 100) of the same compound?
**A.** 100

**Q.** What about the pest or weed control at 31 g/ha ([9]; Ipomoea, post-emergence, 31 g ai/ha, scale 0 to 100 (0 no effect, 100 complete control), read-out: Plant response rating, Morningglory) of the same compound?
**A.** 60%

**Q.** What about the pest or weed control at 62 g/ha ([9]; Ipomoea, post-emergence, 62 g ai/ha, scale 0 (no effect) to 100 (complete control), 13 to 15 days, read-out: Plant response rating, Morningglory) of the same compound?
**A.** 85%

**Q.** What about the pest or weed control at 125 g/ha ([9]; Ipomoea, post-emergence, 125 g ai/ha, visual rating after 13 to 15 days, scale 0 (no effect) to 100 (complete control)) of the same compound?
**A.** 90%

**Q.** What about the “Morningglory plant response rating” value ([9]; 250 g ai/ha, scale 0 to 100) of the same compound?
**A.** 95

**Q.** What about the pest or weed control at 31 g/ha ([10]; Ambrosia artemisiifolia, post-emergence, 360 h, 31 g ai/ha, scale 0 to 100 (0 no effect, 100 complete control), read-out: Plant response rating, Ragweed) of the same compound?
**A.** 100%

**Q.** What about the pest or weed control at 62 g/ha ([10]; Ambrosia artemisiifolia, post-emergence, 360 h, 62 g ai/ha, scale 0 (no effect) to 100 (complete control), 13 to 15 days, read-out: Plant response rating, Ragweed) of the same compound?
**A.** 100%

**Q.** What about the pest or weed control at 125 g/ha ([10]; Ambrosia artemisiifolia, post-emergence, 360 h, 125 g ai/ha, visual rating after 13 to 15 days, scale 0 (no effect) to 100 (complete control)) of the same compound?
**A.** 100%

**Q.** And the “Ragweed plant response rating” value ([10]; 250 g ai/ha, scale 0 to 100)?
**A.** 100

**Q.** What about the plant injury at 31 g/ha (soybean (Glycine max); Glycine max, post-emergence, 31 g ai/ha, scale 0 to 100 (0 no effect, 100 complete control), read-out: Plant response rating, Soybean) of the same compound?
**A.** 95%

**Q.** And the plant injury at 62 g/ha (soybean (Glycine max); Glycine max, post-emergence, 62 g ai/ha, scale 0 (no effect) to 100 (complete control), 13 to 15 days, read-out: Plant response rating, Soybean)?
**A.** 100%

**Q.** And the plant injury at 125 g/ha (soybean (Glycine max); Glycine max, post-emergence, 125 g ai/ha, visual rating after 13 to 15 days, scale 0 (no effect) to 100 (complete control))?
**A.** 100%

**Q.** What about the “Soybean plant response rating” value (soybean (Glycine max); 250 g ai/ha, scale 0 to 100) of the same compound?
**A.** 100

**Q.** And the pest or weed control at 31 g/ha ([11]; Abutilon theophrasti, post-emergence, 360 h, 31 g ai/ha, scale 0 to 100 (0 no effect, 100 complete control), read-out: Plant response rating, Velvetleaf)?
**A.** 70%

**Q.** What about the pest or weed control at 62 g/ha ([11]; Abutilon theophrasti, post-emergence, 360 h, 62 g ai/ha, scale 0 (no effect) to 100 (complete control), 13 to 15 days, read-out: Plant response rating, Velvetleaf) of the same compound?
**A.** 75%

**Q.** And the pest or weed control at 125 g/ha ([11]; Abutilon theophrasti, post-emergence, 360 h, 125 g ai/ha, visual rating after 13 to 15 days, scale 0 (no effect) to 100 (complete control))?
**A.** 90%

**Q.** And the “Velvetleaf plant response rating” value ([11]; 250 g ai/ha, scale 0 to 100)?
**A.** 100
